Assay [1] deals with Snhg1 transcript (NMD target gene) in EMT6 murine breast cancer cell line. Kind of assay: Measurement of NMD inhibitory activity in cells (increase in Snhg1 transcript, real-time PCR). More on the design: species or system mouse. Particulars: Mus musculus, 6 hours treatment, concentration giving 1/2 of maximum Snhg1 fold change of positive control, read-out: Test Example 2 Cell-based Snhg1 EC50. In outline:
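EMT6 cells treated with serially diluted compound (2% DMSO final) for 6 h; Snhg1 transcript quantified by real-time PCR (ΔΔCT, Tbp endogenous control, untreated wells set to 1). EC50 taken as concentration giving half the maximum fold change of a known NMD inhibitor positive control.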
Background: In qPCR the cycle at which signal appears reflects the starting amount.

The next assay concerns the target human SMG1 enzyme (Homo sapiens, UniProt Q96Q15). In words: Measurement of SMG1 kinase activity (ADP-Glo Kinase Assay). The class given is biochemical. The note with it: purified human SMG1 enzyme 5 nM, Upf1 peptide substrate, ATP 4 μM; qAC50 synonymous with IC50; read-out: Test Example 1 ADP-Glo IC50. In outline:
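Purified human SMG1 (5 nM) preincubated with compound (1% DMSO) 15 min at room temperature in HEPES pH 7.5 buffer with MnCl2, then reacted 60 min with Upf1 peptide (8 μg/mL) and 4 μM ATP. ADP formed measured by ADP-Glo luminescence; IC50 by 4-parameter logistic fit, normalised to DMSO (0%) and enzyme-free (−100%) wells.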
For orientation: In ADP-Glo the light output rises with the ADP produced.

Assay [2] concerns Snhg1 transcript in tumor tissues of mice subcutaneously implanted with EMT6 murine breast cancer cell line. In words: Evaluation of NMD inhibitory activity in vivo (Snhg1 transcript in EMT6 tumor tissue after oral administration). Particulars: 6 hours after administration, BALB/c mice. As to the method: The NMD inhibitory activity of a compound of the present invention or a pharmaceutically acceptable salt thereof in vivo can be measured, for example, by the method described below. Using mice subcutaneously implanted with EMT6 murine breast cancer cell line, tumor tissues 6 hours after oral administration of a test substance are excised, and the increase in Snhg1 transcript is quantified as an indicator of NMD inhibition in the tumor, in the same manner as in the in vitro method.
In this test, NMD inhibitory activity in tumor tissues was evaluated when a test substance was orally administered to mice subcutaneously implanted with EMT6 murine breast cancer cell line. As an indicator of NMD inhibitory activity, the increase in the transcript of Snhg1, an NMD target gene, was quantified. First, BALB/c mice were subcutaneously implanted with EMT6 cells (ATCC), and engraftment was confirmed 7 days later. Six hours after administration of the test substance, mice were euthanized, and the collected tumor tissues were cryopreserved. RNA was extracted from the tumor tissues using the illustra RNAspin Mini RNA Isolation kit (GE Healthcare Life Sciences). After synthesizing cDNA using the High-Capacity cDNA Reverse Transcription Kits (Applied Biosystems, 4368813), the cDNA was mixed with PrimeTime Gene Expression Master Mix (Integrated DNA Technologies) and various probes, and gene expression was quantified by QuantStudio 6 Flex (Thermo Fisher Scientific Inc.). For the probe for the Snhg1 gene, which is an NMD target, Mm.PT.58.44039547 (FAM) (Integrated DNA Technologies) was used, and for the probe for the Gapdh gene, which is an endogenous control, Mm99999915_g2 (VIC-PL) (Applied Biosystems) was used. The relative quantification of Snhg1 transcripts in each sample was calculated by the ΔΔCT method using Gapdh as an endogenous control, and the expression level of Snhg1 in each test substance administration group was calculated by setting the expression level of the Vehicle group (0.5% methylcellulose administration group) to 1.

Chain of human SMG1 enzyme (Q96Q15 whole entry): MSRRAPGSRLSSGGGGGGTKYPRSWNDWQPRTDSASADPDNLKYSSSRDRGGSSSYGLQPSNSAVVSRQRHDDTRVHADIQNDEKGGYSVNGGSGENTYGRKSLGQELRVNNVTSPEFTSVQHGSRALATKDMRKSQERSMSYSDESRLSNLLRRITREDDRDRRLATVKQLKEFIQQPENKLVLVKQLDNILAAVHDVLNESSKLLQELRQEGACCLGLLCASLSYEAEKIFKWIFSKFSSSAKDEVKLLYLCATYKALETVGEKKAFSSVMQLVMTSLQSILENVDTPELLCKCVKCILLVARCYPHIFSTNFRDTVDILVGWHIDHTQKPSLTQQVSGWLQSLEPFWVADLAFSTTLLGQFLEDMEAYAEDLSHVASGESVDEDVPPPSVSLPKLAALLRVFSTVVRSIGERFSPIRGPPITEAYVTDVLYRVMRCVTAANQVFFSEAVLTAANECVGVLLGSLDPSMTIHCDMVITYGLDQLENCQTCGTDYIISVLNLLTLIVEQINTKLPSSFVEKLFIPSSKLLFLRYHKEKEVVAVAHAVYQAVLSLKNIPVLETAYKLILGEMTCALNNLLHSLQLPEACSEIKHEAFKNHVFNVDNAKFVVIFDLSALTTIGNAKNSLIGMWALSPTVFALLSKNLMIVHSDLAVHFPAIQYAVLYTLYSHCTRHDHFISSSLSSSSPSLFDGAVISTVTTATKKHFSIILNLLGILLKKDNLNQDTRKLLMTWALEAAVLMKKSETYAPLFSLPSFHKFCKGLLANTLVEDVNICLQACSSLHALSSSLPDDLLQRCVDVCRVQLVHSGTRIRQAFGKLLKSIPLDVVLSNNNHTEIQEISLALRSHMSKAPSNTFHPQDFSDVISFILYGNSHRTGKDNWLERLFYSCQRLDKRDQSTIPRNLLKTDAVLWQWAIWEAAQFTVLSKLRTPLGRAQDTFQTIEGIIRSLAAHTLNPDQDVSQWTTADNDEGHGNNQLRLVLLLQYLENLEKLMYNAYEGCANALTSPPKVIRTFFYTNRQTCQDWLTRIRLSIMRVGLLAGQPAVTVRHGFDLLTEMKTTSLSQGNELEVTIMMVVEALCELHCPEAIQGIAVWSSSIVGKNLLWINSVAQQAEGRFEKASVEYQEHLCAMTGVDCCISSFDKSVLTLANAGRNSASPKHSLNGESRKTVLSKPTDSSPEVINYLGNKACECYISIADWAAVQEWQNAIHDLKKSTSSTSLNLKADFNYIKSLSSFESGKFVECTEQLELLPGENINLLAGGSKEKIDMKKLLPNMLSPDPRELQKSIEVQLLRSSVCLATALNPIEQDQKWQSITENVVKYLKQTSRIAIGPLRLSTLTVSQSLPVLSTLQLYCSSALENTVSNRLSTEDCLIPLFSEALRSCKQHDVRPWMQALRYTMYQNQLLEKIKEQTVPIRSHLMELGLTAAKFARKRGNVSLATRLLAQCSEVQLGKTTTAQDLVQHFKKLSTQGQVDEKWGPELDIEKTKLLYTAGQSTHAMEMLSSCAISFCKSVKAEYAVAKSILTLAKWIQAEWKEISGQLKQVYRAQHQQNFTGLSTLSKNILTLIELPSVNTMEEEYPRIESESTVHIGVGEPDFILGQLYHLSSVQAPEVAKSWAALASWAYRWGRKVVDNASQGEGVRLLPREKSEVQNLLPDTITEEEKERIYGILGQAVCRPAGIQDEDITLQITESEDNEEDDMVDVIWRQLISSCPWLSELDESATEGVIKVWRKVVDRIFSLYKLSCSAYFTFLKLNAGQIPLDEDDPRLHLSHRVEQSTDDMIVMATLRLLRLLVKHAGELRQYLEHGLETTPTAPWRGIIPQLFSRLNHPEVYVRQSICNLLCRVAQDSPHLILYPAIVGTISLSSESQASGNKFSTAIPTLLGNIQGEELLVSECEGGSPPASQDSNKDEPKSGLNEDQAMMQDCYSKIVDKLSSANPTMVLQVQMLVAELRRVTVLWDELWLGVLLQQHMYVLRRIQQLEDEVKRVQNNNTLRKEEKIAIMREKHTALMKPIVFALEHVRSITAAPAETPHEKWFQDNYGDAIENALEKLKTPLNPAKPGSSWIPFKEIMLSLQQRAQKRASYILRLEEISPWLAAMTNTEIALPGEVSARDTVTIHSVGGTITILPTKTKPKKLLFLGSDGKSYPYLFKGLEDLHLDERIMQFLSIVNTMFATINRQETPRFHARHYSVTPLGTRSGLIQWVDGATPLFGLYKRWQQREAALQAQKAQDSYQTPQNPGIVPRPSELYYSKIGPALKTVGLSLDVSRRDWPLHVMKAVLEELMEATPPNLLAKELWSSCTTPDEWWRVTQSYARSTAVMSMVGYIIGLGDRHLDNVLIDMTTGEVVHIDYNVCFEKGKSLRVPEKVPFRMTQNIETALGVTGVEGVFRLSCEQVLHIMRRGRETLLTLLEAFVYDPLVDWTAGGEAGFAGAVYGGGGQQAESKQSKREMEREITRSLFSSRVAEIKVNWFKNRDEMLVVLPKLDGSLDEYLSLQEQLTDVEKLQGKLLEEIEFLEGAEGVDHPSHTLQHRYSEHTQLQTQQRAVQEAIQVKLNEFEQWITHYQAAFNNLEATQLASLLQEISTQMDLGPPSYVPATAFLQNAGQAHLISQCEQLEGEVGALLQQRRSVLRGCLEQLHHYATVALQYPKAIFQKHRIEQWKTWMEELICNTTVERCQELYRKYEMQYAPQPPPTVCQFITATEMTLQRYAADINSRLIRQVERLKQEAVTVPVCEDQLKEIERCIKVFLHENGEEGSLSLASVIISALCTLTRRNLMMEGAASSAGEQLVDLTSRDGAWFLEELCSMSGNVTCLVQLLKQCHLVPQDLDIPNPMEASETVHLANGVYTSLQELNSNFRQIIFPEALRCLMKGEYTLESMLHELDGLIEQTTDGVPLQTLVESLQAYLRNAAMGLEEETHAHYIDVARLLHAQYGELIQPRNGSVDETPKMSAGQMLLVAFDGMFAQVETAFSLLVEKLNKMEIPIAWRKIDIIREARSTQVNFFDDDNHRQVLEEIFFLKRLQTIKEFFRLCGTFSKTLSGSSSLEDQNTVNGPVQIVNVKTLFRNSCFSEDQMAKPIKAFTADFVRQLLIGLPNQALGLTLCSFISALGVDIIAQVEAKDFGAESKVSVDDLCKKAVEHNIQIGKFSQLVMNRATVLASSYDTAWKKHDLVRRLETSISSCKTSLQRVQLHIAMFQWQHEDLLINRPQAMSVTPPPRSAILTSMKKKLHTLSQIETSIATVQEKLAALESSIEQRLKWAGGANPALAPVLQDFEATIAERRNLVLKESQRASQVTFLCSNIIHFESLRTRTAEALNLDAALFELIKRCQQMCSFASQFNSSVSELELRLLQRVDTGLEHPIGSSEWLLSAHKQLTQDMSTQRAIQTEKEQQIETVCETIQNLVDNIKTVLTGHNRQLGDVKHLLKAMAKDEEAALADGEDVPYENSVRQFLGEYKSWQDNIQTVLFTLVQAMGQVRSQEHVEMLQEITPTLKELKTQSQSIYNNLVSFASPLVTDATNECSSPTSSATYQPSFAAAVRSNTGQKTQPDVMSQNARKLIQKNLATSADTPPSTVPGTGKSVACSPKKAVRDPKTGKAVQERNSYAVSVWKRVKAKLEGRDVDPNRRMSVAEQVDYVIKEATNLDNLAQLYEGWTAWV

For `COc1ccccc1-c1nccc2[nH]c(=O)c(-c3nc4cnc(Cl)cc4[nH]3)cc12` [Example 34, 3-(6-chloro-1H-imidazo[4,5-c]pyridin-2-y1)-5-(2-methoxyphenyl)-1,6-naphthyridin-2(1H)-one], the EC50 in assay [1] was found to be 25 nM. Moreover, the IC50 on human SMG1 enzyme was found to be 2.2 nM. In assay [2] (25 mg/kg oral), this compound gave a Snhg1 fold change of 6.2.

For the compound `COc1ccc(F)cc1-c1nccc2[nH]c(=O)c(-c3nc4c(C)nc(Cl)cc4[nH]3)cc12.CS(=O)(=O)O` [Example 131, 3-(6-chloro-4-methyl-1H-imidazo[4,5-c]pyridin-2-yl)-5-(5-fluoro-2-methoxyphenyl)-1,6-naphthyridin-2(1H)-one methanesulfonate], the EC50 in assay [1] is 22 nM. For the same compound, on human SMG1 enzyme, the IC50 came out at 0.78 nM. This compound also registered a Snhg1 fold change in assay [2] (10 mg/kg oral) of 7.1.

Take `CS(=O)(=O)O.Cc1nn(C(F)F)c(C)c1-c1nccc2[nH]c(=O)c(-c3nc4c(N5CC[C@H]5C)nc(Cl)cc4[nH]3)cc12` [Example 149, 3-{6-chloro-4-[(2R)-2-methylazetidin-1-yl]-1H-imidazo[4,5-c]pyridin-2-yl}-5-[1-(difluoromethyl)-3,5-dimethyl-1H-pyrazol-4-yl]-1,6-naphthyridin-2(1H)-one methanesulfonate]: the EC50 in assay [1] is 0.61 nM. In addition, the IC50 at human SMG1 enzyme came to 0.67 nM. Further, the Snhg1 fold change in assay [2] (10 mg/kg oral) is given as 12.

Turning to `CC1(c2nccc3[nH]c(=O)c(-c4nc5c(C6CCOCC6)nc(Cl)cc5[nH]4)cc23)CC1` [Example 128, 3-[6-chloro-4-(tetrahydro-2H-pyran-4-yl)-1H-imidazo[4,5,c]pyridin-2-yl]-5-(1-methylcyclopropyl)-1,6-naphthyridin-2(1H)-one methanesulfonate], the EC50 in assay [1] came to 56 nM. For the same compound, at human SMG1 enzyme, the IC50 was determined as 4.5 nM. Moreover, the Snhg1 fold change in assay [2] (30 mg/kg oral) is given as 6.2.

With `CC1(C)CC(O)(c2nc(Cl)cc3[nH]c(-c4cc5cnccc5[nH]c4=O)nc23)CCO1` (stereo not drawn) [Example 19, 3-[6-chloro-4-(4-hydroxy-2,2-dimethyltetrahydro-2H-pyran-4-yl)-1H-imidazo[4,5-c]pyridin-2-yl]-1,6-naphthyridin-2(1H)-one], in assay [1], the EC50 came to 111 nM. The half-inhibitory concentration (IC50) on human SMG1 enzyme was found to be 2.4 nM. Moreover, the Snhg1 fold change in assay [2] (100 mg/kg oral) is 7.5.

On to `CCc1nc(Cl)cc2[nH]c(-c3cc4c(-c5cnc(C(C)(F)F)cc5OC)nccc4[nH]c3=O)nc12.CS(=O)(=O)O` [Example 147, 3-(6-chloro-4-ethyl-1H-imidazo[4,5-c]pyridin-2-yl)-5-[6-(1,1-difluoroethyl)-4-methoxypyridin-3-yl]-1,6-naphthyridin-2(1H)-one methanesulfonate], for which, in assay [1], the EC50 came to 3.9 nM. Moreover, the IC50 on human SMG1 enzyme is 0.67 nM. The compound also gave a Snhg1 fold change in assay [2] (10 mg/kg oral) of 9.5.

For the compound `CCc1nc(Cl)cc2[nH]c(-c3cc4c(-c5cc(F)ccc5OC)nccc4[nH]c3=O)nc12` [Example 36, 3-(6-chloro-4-ethyl-1H-imidazo[4,5-c]pyridin-2-yl)-5-(5-fluoro-2-methoxyphenyl)-1,6-naphthyridin-2(1H)-one], the EC50 in assay [1] turned out to be 11 nM. Besides, at human SMG1 enzyme, the 50% inhibitory concentration (IC50) is 1.2 nM. The Snhg1 fold change in assay [2] (10 mg/kg oral) was found to be 7.5.

With `CS(=O)(=O)O.[2H]C([2H])([2H])Oc1ccccc1-c1nccc2[nH]c(=O)c(-c3nc4cnc(Cl)cc4[nH]3)cc12` [Example 133, 3-(6-chloro-1H-imidazo[4,5-c]pyridin-2-yl)-5-{2-[(2H3)methyloxy]phenyl}-1,6-naphthyridin-2(1H)-one methanesulfonate], the EC50 in assay [1] stood at 44 nM. Further, the concentration for half-maximal inhibition (IC50) at human SMG1 enzyme came out at 2.4 nM. The same compound had a Snhg1 fold change in assay [2] (12.5 mg/kg oral) of 8.2.

Consider `CS(=O)(=O)O.Cc1c(-c2nccc3[nH]c(=O)c(-c4nc5c(N[C@H](C)C(F)(F)F)nc(Cl)cc5[nH]4)cc23)cnn1C` [Example 152, 3-(6-chloro-4-{[(2R)-1,1,1-trifluoropropan-2-yl]amino}-1H-imidazo[4,5-c]pyridin-2-yl)-5-(1,5-dimethyl-1H-pyrazol-4-yl)-1,6-naphthyridin-2(1H)-one methanesulfonate], for which, in assay [1], the EC50 was 4 nM. Besides, the IC50 on human SMG1 enzyme is 1.1 nM. The compound further had a Snhg1 fold change in assay [2] (10 mg/kg oral) of 7.9.

In the case of `Cc1nc(Cl)cc2[nH]c(-c3cc4c(-c5c(F)cccc5Cl)nccc4[nH]c3=O)nc12` [Example 31, 5-(2-chloro-6-fluorophenyl)-3-(6-chloro-4-methyl-1H-imidazo[4,5-c]pyridin-2-y1)-1,6-naphthyridin-2(1H)-one], the EC50 in assay [1] is 34 nM. For the same compound, the IC50 at human SMG1 enzyme was determined as 1.3 nM. Also, the Snhg1 fold change in assay [2] (10 mg/kg oral) is on record as 5.5.

For `COc1ncccc1-c1nccc2[nH]c(=O)c(-c3nc4c(NCC(F)F)nc(Cl)cc4[nH]3)cc12.CS(=O)(=O)O` [Example 143, 3-{6-chloro-4-[(2,2-difluoroethyl)amino]-1H-imidazo[4,5-c]pyridin-2-yl}-5-(2-methoxypyridin-3-yl)-1,6-naphthyridin-2(1H)-one methanesulfonate], the EC50 in assay [1] stood at 12 nM. Besides, the IC50 at human SMG1 enzyme is 0.85 nM. Further, in assay [2] (10 mg/kg oral), the Snhg1 fold change came to 8.5.

Take `CCc1nc(Cl)cc2[nH]c(-c3cc4c(-c5cnc(OC(F)F)cc5OC)nccc4[nH]c3=O)nc12.CS(=O)(=O)O` [Example 146, 3-(6-chloro-4-ethyl-1H-imidazo[4,5-c]pyridin-2-yl)-5-[6-(difluoromethoxy)-4-methoxypyridin-3-yl]-1,6-naphthyridin-2(1H)-one methanesulfonate]: the EC50 in assay [1] was 3.8 nM. The IC50 on human SMG1 enzyme came to 0.49 nM. For the same compound, the Snhg1 fold change in assay [2] (10 mg/kg oral) amounted to 10.

Regarding `CS(=O)(=O)O.Cc1ccccc1-c1nccc2[nH]c(=O)c(-c3nc4c(NCC(F)(F)F)nc(Cl)cc4[nH]3)cc12` [Example 129, 3-{6-chloro-4-[(2,2,2-trifluoroethyl)amino]-1H-imidazo[4,5-c]pyridin-2-yl}-5-(2-methylphenyl)-1,6-naphthyridin-2(1H)-one methanesulfonate], in assay [1], the EC50 was found to be 17 nM. Moreover, the IC50 at human SMG1 enzyme was 3.5 nM. The compound further gave a Snhg1 fold change in assay [2] (10 mg/kg oral) of 9.0.

For the compound `[2H]C([2H])([2H])Oc1ccccc1-c1nccc2[nH]c(=O)c(-c3nc4c(C(C)C)nc(Cl)cc4[nH]3)cc12` [Example 38, 3-[6-chloro-4-(propan-2-yl)-1H-imidazo[4,5-c]pyridin-2-yl]-5-{2-[(^2H3)methyloxy]phenyl}-1,6-naphthyridin-2(1H)-one], the EC50 in assay [1] was 10 nM. Moreover, at human SMG1 enzyme, the concentration for half-maximal inhibition (IC50) came to 1.7 nM. In assay [2] (30 mg/kg oral), this compound gave a Snhg1 fold change of 9.2.

For the compound `COc1cc(C(C)C)ncc1-c1nccc2[nH]c(=O)c(-c3nc4cnc(Cl)cc4[nH]3)cc12` [Example 61, 3-(6-chloro-1H-imidazo[4,5-c]pyridin-2-yl)-5-[4-methoxy-6-(propan-2-yl)pyridin-3-yl]-1,6-naphthyridin-2(1H)-one], in assay [1], the half-maximal effective concentration (EC50) amounted to 26 nM. Also, the IC50 at human SMG1 enzyme turned out to be 1.4 nM. The compound further returned a Snhg1 fold change in assay [2] (100 mg/kg oral) of 4.3.

`CCc1nc(Cl)cc2[nH]c(-c3cc4c(-c5cnc(OC)nc5OC)nccc4[nH]c3=O)nc12` [Example 70, 3-(6-chloro-4-ethyl-1H-imidazo[4,5-c]pyridin-2-yl)-5-(2,4-dimethoxypyrimidin-5-yl)-1,6-naphthyridin-2(1H)-one]: the EC50 in assay [1] was 15 nM. The IC50 at human SMG1 enzyme was found to be 0.56 nM. Besides, the Snhg1 fold change in assay [2] (10 mg/kg oral) was determined as 3.6.

Broadly, the EC50 is the concentration at which the effect is half-maximal. The term IC50 denotes the concentration that gives 50% inhibition.
